Laboratory results taken from patent US9676782B2, “Substituted pyrazolo[1,5-a]pyrazines as negative allosteric modulators of metabotropic glutamate receptor 3” (Vanderbilt University, priority 2014, dated 2017).
pEC50, pIC50: −log10 of the molar value. Read-outs that look alike come from different tables or passages of the source.

Tests used:
rat mGlu5 = rat mGlu5 (Rattus norvegicus (Rat), UniProt P31424); assay: mGlu5 Ca2+ flux assay; assay type: cell-based; settings: for Fold selectivity (mGlu3 vs. mGlu5): ratio of rat mGlu5 EC50 or IC50 to rat mGlu3 IC50; for Emax at 30 µM: read-out: rat mGlu5 Glu max (%); for mGlu5 Glu max: response at 30 μM compound as percentage of maximal glutamate response; for pIC50: glutamate EC80
rat mGlu5, sequence (P31424 21-1203): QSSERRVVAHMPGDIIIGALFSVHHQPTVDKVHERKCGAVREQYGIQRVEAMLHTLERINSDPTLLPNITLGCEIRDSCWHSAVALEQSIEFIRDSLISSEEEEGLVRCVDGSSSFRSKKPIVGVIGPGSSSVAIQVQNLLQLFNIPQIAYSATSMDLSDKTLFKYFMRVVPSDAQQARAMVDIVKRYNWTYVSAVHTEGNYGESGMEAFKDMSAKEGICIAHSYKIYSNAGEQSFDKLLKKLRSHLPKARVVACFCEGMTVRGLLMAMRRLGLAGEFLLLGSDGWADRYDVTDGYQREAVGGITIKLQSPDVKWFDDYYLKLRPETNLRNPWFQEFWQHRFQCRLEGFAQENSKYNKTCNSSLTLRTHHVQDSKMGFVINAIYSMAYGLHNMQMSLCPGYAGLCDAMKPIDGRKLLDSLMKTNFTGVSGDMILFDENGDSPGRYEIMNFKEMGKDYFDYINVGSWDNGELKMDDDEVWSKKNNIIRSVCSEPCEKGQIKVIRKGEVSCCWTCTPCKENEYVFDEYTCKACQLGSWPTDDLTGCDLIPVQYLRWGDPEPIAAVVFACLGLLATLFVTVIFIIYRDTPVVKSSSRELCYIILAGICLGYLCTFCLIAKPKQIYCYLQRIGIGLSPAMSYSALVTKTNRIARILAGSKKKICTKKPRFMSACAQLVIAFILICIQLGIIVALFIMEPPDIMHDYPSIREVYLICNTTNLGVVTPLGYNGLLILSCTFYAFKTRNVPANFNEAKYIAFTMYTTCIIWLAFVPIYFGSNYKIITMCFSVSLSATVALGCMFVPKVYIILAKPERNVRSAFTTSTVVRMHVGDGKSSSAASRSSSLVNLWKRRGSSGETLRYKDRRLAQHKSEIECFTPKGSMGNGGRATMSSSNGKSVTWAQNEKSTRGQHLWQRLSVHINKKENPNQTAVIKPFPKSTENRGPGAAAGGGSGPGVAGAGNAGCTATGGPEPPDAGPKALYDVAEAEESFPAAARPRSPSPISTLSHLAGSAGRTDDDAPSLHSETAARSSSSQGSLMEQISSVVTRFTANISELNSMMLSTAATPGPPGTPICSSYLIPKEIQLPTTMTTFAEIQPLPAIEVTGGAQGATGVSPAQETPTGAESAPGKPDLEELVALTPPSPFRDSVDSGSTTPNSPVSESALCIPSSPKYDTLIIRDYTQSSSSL
Summary of the method: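 Transfected cells grown overnight at 37° C/5% CO2, dye-loaded, then 5 min in assay buffer at RT before Ca2+ flux read on FDSS7000. Fluorescence as F/F0 fold over basal, normalized to maximal glutamate response; EC50 from unconstrained 4-parameter logistic fit, triplicates weighted evenly.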

rat mGlu3 = rat mGlu3 (Rattus norvegicus (Rat), UniProt P31422); assay: mGlu3 Ca2+ flux assay; assay type: cell-based; settings: for remaining activity at 30 µM: amplitude of response at 30 μM test compound as % of maximal response to glutamate, read-out: rat mGlu3 Glu max (%); for mGlu3 Glu max: response at 30 μM compound as percentage of maximal glutamate response
rat mGlu3, sequence (P31422 23-879): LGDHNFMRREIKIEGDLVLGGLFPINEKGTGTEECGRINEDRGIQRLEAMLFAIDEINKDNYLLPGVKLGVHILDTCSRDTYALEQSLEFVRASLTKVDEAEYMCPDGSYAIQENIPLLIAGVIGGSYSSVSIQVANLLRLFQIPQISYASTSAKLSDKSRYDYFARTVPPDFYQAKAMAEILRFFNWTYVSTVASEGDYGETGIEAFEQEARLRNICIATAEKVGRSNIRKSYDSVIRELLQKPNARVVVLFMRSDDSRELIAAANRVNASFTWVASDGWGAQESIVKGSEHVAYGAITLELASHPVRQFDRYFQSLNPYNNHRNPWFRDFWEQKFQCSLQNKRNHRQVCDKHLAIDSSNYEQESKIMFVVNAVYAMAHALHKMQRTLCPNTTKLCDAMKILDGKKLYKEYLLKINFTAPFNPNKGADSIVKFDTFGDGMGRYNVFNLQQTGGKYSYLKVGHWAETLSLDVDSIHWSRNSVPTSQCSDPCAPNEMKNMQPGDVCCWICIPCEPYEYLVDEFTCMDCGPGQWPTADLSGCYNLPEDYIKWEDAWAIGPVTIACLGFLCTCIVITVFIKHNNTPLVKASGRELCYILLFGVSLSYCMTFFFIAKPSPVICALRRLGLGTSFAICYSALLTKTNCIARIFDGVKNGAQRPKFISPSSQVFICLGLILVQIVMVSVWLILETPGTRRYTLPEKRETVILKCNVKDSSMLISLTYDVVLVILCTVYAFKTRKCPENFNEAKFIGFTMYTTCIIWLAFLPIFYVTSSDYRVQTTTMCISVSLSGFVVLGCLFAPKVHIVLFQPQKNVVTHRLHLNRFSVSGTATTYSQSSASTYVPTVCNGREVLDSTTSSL
Summary of the method: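 Cells expressing rat mGlu3 were grown overnight at 37° C. under 5% CO2, then loaded with dye. After dye removal they received 20 μL of assay buffer and sat 10 minutes at room temperature. Calcium flux was read on a Hamamatsu FDSS7000, and fluorescence was expressed as fold over basal and normalized to the maximal glutamate response.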

[1] = read-out: rat mGlu5 EC50 or IC50
[2] = NAM potency, decrease of glutamate EC80 response, >30,000 = no measurable activity, >10,000 = no plateau, read-out: rat mGlu3 IC50
[3] = PAM, amplitude of response at 30 μM test compound as % of maximal response to glutamate
[4] = Table 2 compounds with X = O, read-out: mGlu5 EC50
[5] = Table 2 compounds with X = O, read-out: mGlu3 IC50
[6] = compound noted as NAM or partial antagonist (PAnt) at mGlu5, read-out: rat mGlu5 EC50 or IC50
[7] = compound noted as NAM or partial antagonist (PAnt) at mGlu5, response at 30 μM as % of maximal glutamate response

Structure (SMILES) | Fold selectivity (mGlu3 vs. mGlu5) (rat mGlu5) | pEC50 (rat mGlu5; [1]) | pIC50 (rat mGlu3; [2]) | remaining activity at 30 µM (rat mGlu3) | Emax at 30 µM (rat mGlu5; [3]) | pEC50 (rat mGlu5; [4]) | mGlu5 Glu max (rat mGlu5; Table 2 compounds with X = O) | pIC50 (rat mGlu3; [5]) | mGlu3 Glu max (rat mGlu3; Table 2 compounds with X = O) | pIC50 (rat mGlu5; [6]) | Emax at 30 µM (rat mGlu5; [7]) | pIC50 (rat mGlu3; read-out: rat mGlu3 IC50)
COc1ccc(N(C)Cc2cc3n(n2)CCN(c2cccc(C)c2)C3=O)cc1 [Compound 103, 2-(((4-methoxyphenyl)(methyl)amino)methyl)-5-(m-tolyl)-6,7-dihydropyrazolo[1,5-a]pyrazin-4(5H)-one] | >37 | < 4.52 | 6.09 | 1.16% |  |  |  |  |  |  |  | 
O=C1c2cc(CNc3ccccc3Cl)nn2CCN1c1ccc(F)cc1 [Compound 5, 2-(((2-chlorophenyl)amino)methyl)-5-(4-fluorophenyl)-6,7-dihydropyrazolo[1,5-a]pyrazin-4(5H)-one] | 1.72 | 5.66 | 5.90 | 2.08% | 65.4% |  |  |  |  |  |  | 
Cc1ccc(NCc2cc3n(n2)[C@@H](C)CN(c2ccc(F)cc2)C3=O)cc1 [Compound 59, (S)-5-(4-fluorophenyl)-7-methyl-2-((p-tolylamino)methyl)-6,7-dihydropyrazolo[1,5-a]pyrazin-4(5H)-one] | >5.7 | < 5.00 | 5.76 | 3.14% | 48.9% |  |  |  |  |  |  | 
C[C@@H]1CN(c2ccc(F)cc2)C(=O)c2cc(CNc3c(F)cc(F)cc3F)nn21 [Compound 79, (R)-5-(4-fluorophenyl)-7-methyl-2-(((2,4,6-trifluorophenyl)amino)methyl)-6,7-dihydropyrazolo[1,5-a]pyrazin-4(5H)-one] | >7.8 | < 5.00 | 5.89 | 1.49% | 40% |  |  |  |  |  |  | 
C[C@H]1CN(c2ccc(F)cc2)C(=O)c2cc(CNc3ccccc3F)nn21 [Compound 43, (S)-5-(4-fluorophenyl)-2-(((2-fluorophenyl)amino)methyl)-7-methyl-6,7-dihydropyrazolo[1,5-a]pyrazin-4(5H)-one] | 2.06 | 5.28 | 5.60 | 1.61% | 90.6% |  |  |  |  |  |  | 
O=C1c2cc(COc3cccc(F)c3)nn2CCN1c1ccc(F)cc1 [drawing 31 X = O, reference compound] |  |  |  |  |  | 6.72 | 69% | 6.88 | 1% |  |  | 
COc1ccc(N(C)Cc2cc3n(n2)CCN(c2cc(Cl)ccc2F)C3=O)cc1 [Compound 127, 5-(5-chloro-2-fluorophenyl)-2-(((4-methoxyphenyl)(methyl)amino)methyl)-6,7-dihydropyrazolo[1,5-a]pyrazin-4(5H)-one] | >7.9 |  | 5.90 | 2.32% |  |  |  |  |  | < 5.00 | 54.6% | 
CN(Cc1cc2n(n1)CCN(c1ccc(F)cc1)C2=O)c1ccc(Cl)cc1 [Compound 90, 2-(((4-chlorophenyl)(methyl)amino)methyl)-5-(4-fluorophenyl)-6,7-dihydropyrazolo[1,5-a]pyrazin-4(5H)-one] | 5.08 | 5.35 | 6.05 | 1.4% | 87.3% |  |  |  |  |  |  | 
O=C1c2cc(CNc3ccc(OC(F)F)cc3F)nn2CCN1c1ccc(F)cc1F [Compound 141, 2-(((4-(difluoromethoxy)-2-fluorophenyl)amino)methyl)-5-(2,4-difluorophenyl)-6,7-dihydropyrazolo[1,5-a]pyrazin-4(5H)-one] | >42 | < 4.52 | 6.15 | 1.87% |  |  |  |  |  |  |  | 
COc1ccc(N(C)Cc2cc3n(n2)CCN(c2ccc(Cl)cn2)C3=O)cc1 [Compound 124, 5-(5-chloropyridin-2-yl)-2-(((4-methoxyphenyl)(methyl)amino)methyl)-6,7-dihydropyrazolo[1,5-a]pyrazin-4(5H)-one] | >32 | < 4.52 | 6.04 | 1.64% |  |  |  |  |  |  |  | 
COc1ccc(N(C)Cc2cc3n(n2)CCN(c2ccc(C)cc2F)C3=O)cc1 [Compound 108, 5-(2-fluoro-4-methylphenyl)-2-(((4-methoxyphenyl)(methyl)amino)methyl)-6,7-dihydropyrazolo[1,5-a]pyrazin-4(5H)-one] | >24 | < 4.52 | 5.90 | 0.97% |  |  |  |  |  |  |  | 
O=C1c2cc(CNc3ccc(OC(F)F)cc3F)nn2CCN1c1ccccc1F [Compound 153, 2-(((4-(difluoromethoxy)-2-fluorophenyl)amino)methyl)-5-(2-fluorophenyl)-6,7-dihydropyrazolo[1,5-a]pyrazin-4(5H)-one] | >38 | < 4.52 | 6.11 | 2.29% |  |  |  |  |  |  |  | 
CN(Cc1cc2n(n1)CCN(c1ccc(F)cc1)C2=O)c1ccccc1Cl [Compound 84, 2-(((2-chlorophenyl)(methyl)amino)methyl)-5-(4-fluorophenyl)-6,7-dihydropyrazolo[1,5-a]pyrazin-4(5H)-one] | >5.3 |  | 5.73 | 0.82% |  |  |  |  |  | < 5.00 | 73.4% | 
O=C1c2cc(CNc3cccc(F)c3)nn2CCN1c1ccc(F)cc1 [Compound 7, 5-(4-fluorophenyl)-2-(((3-fluorophenyl)amino)methyl)-6,7-dihydropyrazolo[1,5-a]pyrazin-4(5H)-one] | 2.13 | 5.66 | 5.98 | 1.28% | 99% |  |  |  |  |  |  | 
O=C1c2cc(CNc3cccc(Cl)c3)nn2CCN1c1ccc(F)cc1 [Compound 9, 2-(((3-chlorophenyl)amino)methyl)-5-(4-fluorophenyl)-6,7-dihydropyrazolo[1,5-a]pyrazin-4(5H)-one] | 2.74 | 5.48 | 5.92 | 2.95% | 82.8% |  |  |  |  |  |  | 
O=C1c2cc(CNc3ccc(Cl)cc3F)nn2CCN1c1ccc(F)cc1 [Compound 34, 2-(((4-chloro-2-fluorophenyl)amino)methyl)-5-(4-fluorophenyl)-6,7-dihydropyrazolo[1,5-a]pyrazin-4(5H)-one] | >35 | < 4.52 | 6.07 | 3.18% |  |  |  |  |  |  |  | 
COc1ccc(N(C)Cc2cc3n(n2)CCN(c2cc(F)ccc2Cl)C3=O)cc1 [Compound 129, 5-(2-chloro-5-fluorophenyl)-2-(((4-methoxyphenyl)(methyl)amino)methyl)-6,7-dihydropyrazolo[1,5-a]pyrazin-4(5H)-one] | >14 | < 4.52 | 5.69 | 2.02% |  |  |  |  |  |  |  | 
O=C1c2cc(CNc3ccc(C(F)(F)F)cc3)nn2CCN1c1ccc(F)cc1 [Compound 19, 5-(4-fluorophenyl)-2-(((4-(trifluoromethyl)phenyl)amino)methyl)-6,7-dihydropyrazolo[1,5-a]pyrazin-4(5H)-one] |  | < 4.52 |  |  |  |  |  |  |  |  |  | < 4.52
C[C@H]1CN(c2ccc(F)cc2)C(=O)c2cc(CNc3ccc(F)cc3F)nn21 [Compound 76, (S)-2-(((2,4-difluorophenyl)amino)methyl)-5-(4-fluorophenyl)-7-methyl-6,7-dihydropyrazolo[1,5-a]pyrazin-4(5H)-one] | 7.00 | 5.09 | 5.93 | 0.35% | 86.1% |  |  |  |  |  |  | 
COc1ccc(N(C)Cc2cc3n(n2)CCN(c2ccc(F)cc2C)C3=O)cc1 [Compound 109, 5-(4-fluoro-2-methylphenyl)-2-(((4-methoxyphenyl)(methyl)amino)methyl)-6,7-dihydropyrazolo[1,5-a]pyrazin-4(5H)-one] | >22 | < 4.52 | 5.88 | 2.13% |  |  |  |  |  |  |  | 
O=C1c2cc(CNc3cccc(OC(F)F)c3)nn2CCN1c1ccc(F)cc1 [Compound 12, 2-(((3-(difluoromethoxy)phenyl)amino)methyl)-5-(4-fluorophenyl)-6,7-dihydropyrazolo[1,5-a]pyrazin-4(5H)-one] | 14.51 | 5.13 | 6.30 | 1.31% | 85.6% |  |  |  |  |  |  | 
O=C1c2cc(COc3ccccc3F)nn2CCN1c1ccc(F)cc1 [drawing 30 X = O, reference compound] |  |  |  |  |  | 6.83 | 61% | 6.58 | 2% |  |  | 
COc1ccc(N(C)Cc2cc3n(n2)CCN(c2ccc(Cl)cc2)C3=O)cc1 [Compound 96, 5-(4-chlorophenyl)-2-(((4-methoxyphenyl)(methyl)amino)methyl)-6,7-dihydropyrazolo[1,5-a]pyrazin-4(5H)-one] | >51 | < 4.52 | 6.23 | 1.61% |  |  |  |  |  |  |  | 
